For assay [1], the target named is T1, Epidermal growth factor receptor (Homo sapiens, UniProt P00533). Briefly: Inhibition of EGFR by Z-LYTE assay.
The target in assay [2] is T1, Epidermal growth factor receptor. The assay can be described thus: Inhibition of EGF-induced EGFR internalization in human HeLa cells assessed as subcellular localization of receptor at 500 nM measured after 15 to 20 mins post receptor activation by immunostaining-based confocal microscopy analysis. The class given is cell-based.

The values that follow come from ChEMBL document CHEMBL1914342, “Synthesis and in vitro EGFR (ErbB1) tyrosine kinase inhibitory activity of 4-N-substituted 6-aryl-7H-pyrrolo[2,3-d]pyrimidine-4-amines” (Eur J Med Chem, 2011).

The source made the active and inactive calls. The calls are words filed in the database; no cut-off is given here.

T1 sequence (P00533 whole entry): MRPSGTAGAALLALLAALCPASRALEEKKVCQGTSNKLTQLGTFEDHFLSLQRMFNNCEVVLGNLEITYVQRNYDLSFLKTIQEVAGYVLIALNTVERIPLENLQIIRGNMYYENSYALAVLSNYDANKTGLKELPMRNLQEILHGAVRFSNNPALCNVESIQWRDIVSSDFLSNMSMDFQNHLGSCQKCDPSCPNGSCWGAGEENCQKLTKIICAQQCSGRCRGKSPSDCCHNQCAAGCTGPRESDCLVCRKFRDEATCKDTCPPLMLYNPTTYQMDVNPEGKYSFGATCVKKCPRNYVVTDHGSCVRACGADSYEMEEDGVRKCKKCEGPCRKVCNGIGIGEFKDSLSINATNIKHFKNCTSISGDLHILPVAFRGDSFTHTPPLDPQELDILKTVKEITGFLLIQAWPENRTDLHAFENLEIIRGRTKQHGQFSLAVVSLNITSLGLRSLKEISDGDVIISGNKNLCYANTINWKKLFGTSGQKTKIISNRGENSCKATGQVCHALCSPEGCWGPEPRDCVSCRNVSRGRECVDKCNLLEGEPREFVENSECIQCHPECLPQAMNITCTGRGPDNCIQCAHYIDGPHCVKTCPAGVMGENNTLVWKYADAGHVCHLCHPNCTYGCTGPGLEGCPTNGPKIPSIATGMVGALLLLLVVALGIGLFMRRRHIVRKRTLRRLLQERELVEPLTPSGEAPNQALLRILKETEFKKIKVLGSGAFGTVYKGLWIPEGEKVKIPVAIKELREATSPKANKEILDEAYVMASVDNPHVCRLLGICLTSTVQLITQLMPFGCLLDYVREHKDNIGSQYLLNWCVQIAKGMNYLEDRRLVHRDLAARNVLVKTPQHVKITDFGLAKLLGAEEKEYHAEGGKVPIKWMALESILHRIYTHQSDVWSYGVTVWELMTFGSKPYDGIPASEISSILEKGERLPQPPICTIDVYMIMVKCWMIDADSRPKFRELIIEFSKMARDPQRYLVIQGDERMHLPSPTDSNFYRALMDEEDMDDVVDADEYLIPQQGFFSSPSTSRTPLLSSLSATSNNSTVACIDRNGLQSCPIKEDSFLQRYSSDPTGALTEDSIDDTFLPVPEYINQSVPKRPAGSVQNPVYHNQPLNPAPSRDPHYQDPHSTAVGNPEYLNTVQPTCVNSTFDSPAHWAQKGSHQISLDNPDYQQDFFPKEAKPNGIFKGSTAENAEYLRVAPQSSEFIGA

For orientation: IC50 means the concentration needed to halve the response being measured. A low value points to inhibition by little substance. In assay [1], `C[C@@H](Nc1ncnc2[nH]c(-c3ccccc3)cc12)c1ccc(F)cc1` had an IC50 of 33 nM.
For the compound `C[C@@H](Nc1nc[nH]c2nc(-c3ccccc3)cc1-2)c1ccccc1`, in assay [1], the IC50 was 3.3 nM.
On to `CC[C@@H](Nc1ncnc2[nH]c(-c3ccc(O)cc3)cc12)c1ccccc1`, for which half-maximal inhibition in assay [1] (IC50) required 4 nM.
On the same count and under the same terms, with `Oc1ccc(-c2cc3c(NCc4cccc(F)c4)ncnc3[nH]2)cc1` the figure was 52 nM; with `Oc1ccc(-c2cc3c(NCc4ccc(F)cc4)ncnc3[nH]2)cc1`, 26 nM.
On to `C[C@@H](Nc1ncnc2[nH]c(-c3ccc(O)cc3)cc12)c1ccccc1`, for which the inhibition entry in assay [2] was “inactive”. The same compound returned an IC50 in assay [1] of 3.7 nM.
In turn, `Cc1ccc([C@@H](C)Nc2ncnc3[nH]c(-c4ccc(O)cc4)cc23)cc1` came in with an IC50 in assay [1] of 450 nM.
For the compound `C[C@@H](Nc1ncnc2[nH]c(-c3ccc(O)cc3)cc12)c1ccc(Br)cc1`, half-maximal inhibition in assay [1] (IC50) was put at 62 nM.
`Cc1cccc(C(C)Nc2ncnc3[nH]c(-c4ccc(O)cc4)cc23)c1` (racemic) came in with an IC50 in assay [1] of 95 nM.
Consider `C[C@@H](Nc1ncnc2[nH]c(-c3ccc(O)cc3)cc12)c1ccc(F)cc1`, for which half-maximal inhibition in assay [1] (IC50) was put at 3.8 nM.
In assay [1], `C[C@@H](Nc1ncnc2[nH]c(-c3ccc(O)cc3)cc12)c1cccc(F)c1` registered an IC50 of 9 nM. This IC50 is about 2.4-fold higher than that of the compound before.
For the compound `COc1ccc(-c2cc3c(N[C@H](C)c4ccccc4)ncnc3[nH]2)cc1`, in assay [1], the IC50 was 4.7 nM.
In assay [1], `C[C@@H](Nc1ncnc2[nH]c(-c3ccc(C#N)cc3)cc12)c1ccccc1` displayed an IC50 of 12 nM. This IC50 lies about 2.6-fold higher than the previous one.
`C[C@@H](Nc1ncnc2[nH]c(-c3ccc(F)cc3)cc12)c1ccc(F)cc1` returned a half-inhibitory concentration (IC50) in assay [1] of 27 nM.
In the case of `C[C@@H](Nc1ncnc2[nH]c(-c3ccc(Br)cc3)cc12)c1ccccc1`, the midpoint of inhibition in assay [1], the IC50, lay at 63 nM. Compared with the last compound, the IC50 is about 2.3-fold higher.
On the same count and under the same terms, with `CC(Nc1ncnc2[nH]c(-c3ccc(O)cc3)cc12)c1ccc(C(F)(F)F)cc1` (racemic) the figure was 4610 nM; with `CC(Nc1ncnc2[nH]c(-c3ccc(O)cc3)cc12)c1cccc2ccccc12` (racemic), 1010 nM.
`C[C@@H](Nc1ncnc2[nH]c(-c3ccc(Br)cc3)cc12)c1ccc(F)cc1` showed an IC50 in assay [1] of 29 nM.
`Oc1ccc(-c2cc3c(NCc4ccccc4F)ncnc3[nH]2)cc1` came in with an IC50 in assay [1] of 45 nM.
Still for that read-out and setting: the figure for `C[C@@H](Nc1ncnc2[nH]c(-c3ccc(F)cc3)cc12)c1ccccc1` is 6.6 nM; for `Oc1ccc(-c2cc3c(NCc4ccccc4)ncnc3[nH]2)cc1` it is 3.3 nM.
In assay [1], `Cc1ccccc1C(C)Nc1ncnc2[nH]c(-c3ccc(O)cc3)cc12` (racemic) had an IC50 of 17 nM.
Consider `C[C@@H](Nc1ncnc2[nH]c(-c3ccc(C#N)cc3)cc12)c1ccc(F)cc1`, for which the IC50 in assay [1] was 14 nM.
For `C[C@@H](Nc1ncnc2[nH]c(-c3ccc(O)cc3)cc12)c1ccccc1F`, in assay [1], half-maximal inhibition (IC50) required 8 nM.
